Target: GST-RIPK1 (recombinant GST-RIPK1 kinase domain (residues 1-327)) (Homo sapiens (Human), UniProt Q13546)
Experiment: RIPK1-ADP-Glo Enzymatic Assay
Assay type: biochemical
Details: 25 nM GST-RIPK1, 300 μM ATP, 3 μM dephosphorylated-MBP, 30 min pre-incubation, 150 min reaction
Outline: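 GST-RIPK1 kinase domain (1-327, Sf21-expressed), 25 nM final, pre-incubated 30 min with compound (1% DMSO), then reacted 150 min with 300 μM ATP and 3 μM dephosphorylated MBP in HEPES pH 7.3/MgCl2 buffer. ADP measured by ADP-Glo luminescence; EC50 from 10-point 1:3 titrations (top 100000 nM), four-parameter fit.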

Sequence of GST-RIPK1 (recombinant GST-RIPK1 kinase domain (residues 1-327)) (Q13546 1-327): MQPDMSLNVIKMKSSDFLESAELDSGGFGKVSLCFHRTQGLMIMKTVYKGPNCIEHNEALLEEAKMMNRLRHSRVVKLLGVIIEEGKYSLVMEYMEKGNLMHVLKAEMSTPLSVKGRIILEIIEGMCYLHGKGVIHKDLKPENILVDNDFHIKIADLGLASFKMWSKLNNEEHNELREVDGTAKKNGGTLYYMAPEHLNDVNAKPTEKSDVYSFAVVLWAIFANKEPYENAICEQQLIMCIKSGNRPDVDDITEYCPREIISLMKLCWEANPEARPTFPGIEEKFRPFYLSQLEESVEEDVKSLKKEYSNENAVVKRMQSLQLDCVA

| EC50 [nM] | Compound |
| --- | --- |
| 874 | N#CC12CC(n3nc4n(c3=O)[C@H](c3cccc(C(F)(F)F)c3)CC4)(C1)C2 [Compound 1-49, (S)-3-(3-oxo-5-(3-(trifluoromethyl)phenyl)-6,7-dihydro-3H-pyrrolo[2,1-c][1,2,4]triazol-2(5H)-yl)bicyclo[1.1.1]pentane-1-carbonitrile] |
| 250 | N#CC12CC(n3nc4n(c3=O)[C@H](c3ccc(C(F)(F)F)cc3)CC4)(C1)C2 [Compound 1-50, (S)-3-(3-oxo-5-(4-(trifluoromethyl)phenyl)-6,7-dihydro-3H-pyrrolo[2,1-c][1,2,4]triazol-2(5H)-yl)bicyclo[1.1.1]pentane-1-carbonitrile] |
| 16.1 | Cc1c(F)cc([C@@H]2CCc3nn(C45CC(C#N)(C4)C5)c(=O)n32)cc1F [Compound 1-51, (S)-3-(5-(3,5-difluoro-4-methylphenyl)-3-oxo-6,7-dihydro-3H-pyrrolo[2,1-c][1,2,4]triazol-2(5H)-yl)bicyclo[1.1.1]pentane-1-carbonitrile] |
| 109 | N#CC12CC(n3nc4n(c3=O)[C@H](c3cc(F)cc(F)c3)CCC4)(C1)C2 [Compound 1-53, (S)-3-(5-(3,5-difluorophenyl)-3-oxo-5,6,7,8-tetrahydro-[1,2,4]triazolo[4,3-a]pyridin-2(3H)-yl)bicyclo[1.1.1]pentane-1-carbonitrile] |
| 15.8 | Cc1c(F)cc([C@@H]2CCc3nn(C45CC(F)(C4)C5)c(=O)n32)cc1F [Compound 1-56, (S)-5-(3,5-difluoro-4-methylphenyl)-2-(3-fluorobicyclo[1.1.1]pentan-1-yl)-2,5,6,7-tetrahydro-3H-pyrrolo[2,1-c][1,2,4]triazol-3-one] |
| 369 | O=c1n(C23CC(C(F)F)(C2)C3)nc2n1[C@H](c1cncc(F)c1)CC2 [Compound 1-57, (S)-2-(3-(difluoromethyl)bicyclo[1.1.1]pentan-1-yl)-5-(5-fluoropyridin-3-yl)-2,5,6,7-tetrahydro-3H-pyrrolo[2,1-c][1,2,4]triazol-3-one] |
| 45.9 | O=c1n(C23CC(F)(C2)C3)nc2n1[C@H](c1cc(F)cc(F)c1)CCC2 [Compound 1-58, (S)-5-(3,5-difluorophenyl)-2-(3-fluorobicyclo[1.1.1]pentan-1-yl)-5,6,7,8-tetrahydro-[1,2,4]triazolo[4,3-a]pyridin-3(2H)-one] |
| 53.9 | O=c1n(C23CC(Cl)(C2)C3)nc2n1[C@H](c1cnccn1)CC2 [Compound 1-59, (S)-2-(3-chlorobicyclo[1.1.1]pentan-1-yl)-5-(pyrazin-2-yl)-2,5,6,7-tetrahydro-3H-pyrrolo[2,1-c][1,2,4]triazol-3-one] |
| 512 | N#CC12CCC(n3nc4n(c3=O)[C@H](c3cnccn3)CC4)(C1)C2 [Compound 1-60, (S)-4-(3-oxo-5-(pyrazin-2-yl)-6,7-dihydro-3H-pyrrolo[2,1-c][1,2,4]triazol-2(5H)-yl)bicyclo[2.1.1]hexane-1-carbonitrile] |
| 696 | O=c1n(C23CCC(C2)C3)nc2n1[C@H](c1cnccn1)CC2 [Compound 1-61, (S)-2-(bicyclo[2.1.1]hexan-1-yl)-5-(pyrazin-2-yl)-2,5,6,7-tetrahydro-3H-pyrrolo[2,1-c][1,2,4]triazol-3-one] |
| 98.6 | N#CC12CC(n3nc4n(c3=O)[C@H](c3cccc(Cl)c3)CC4)(C1)C2 [Compound 1-62, (S)-3-(5-(3-chlorophenyl)-3-oxo-6,7-dihydro-3H-pyrrolo[2,1-c][1,2,4]triazol-2(5H)-yl)bicyclo[1.1.1]pentane-1-carbonitrile] |
| 68.1 | O=c1n(C23CC(F)(C2)C3)nc2n1[C@H](c1cccc(Cl)c1)CC2 [Compound 1-63, (S)-5-(3-chlorophenyl)-2-(3-fluorobicyclo[1.1.1]pentan-1-yl)-2,5,6,7-tetrahydro-3H-pyrrolo[2,1-c][1,2,4]triazol-3-one] |
| 395 | N#CC12CC(n3nc4n(c3=O)[C@@H](c3cc(F)cc(F)c3)CS4)(C1)C2 [Compound 1-64, (S)-3-(5-(3,5-difluorophenyl)-3-oxo-5,6-dihydrothiazolo[2,3-c][1,2,4]triazol-2(3H)-yl)bicyclo[1.1.1]pentane-1-carbonitrile] |
| 21.1 | N#CC12CC(n3nc4n(c3=O)[C@H](c3cc(F)cc(F)c3)CS4)(C1)C2 [Compound 1-65, (R)-3-(5-(3,5-difluorophenyl)-3-oxo-5,6-dihydrothiazolo[2,3-c][1,2,4]triazol-2(3H)-yl)bicyclo[1.1.1]pentane-1-carbonitrile] |
| 85.8 | COc1ccc([C@@H]2CCc3nn(C45CC(F)(C4)C5)c(=O)n32)cc1 [Compound 1-66, (S)-2-(3-fluorobicyclo[1.1.1]pentan-1-yl)-5-(4-methoxyphenyl)-2,5,6,7-tetrahydro-3H-pyrrolo[2,1-c][1,2,4]triazol-3-one] |
| 279 | N#Cc1ccc([C@@H]2CCc3nn(C45CC(F)(C4)C5)c(=O)n32)cc1 [Compound 1-67, (S)-4-(2-(3-fluorobicyclo[1.1.1]pentan-1-yl)-3-oxo-2,5,6,7-tetrahydro-3H-pyrrolo[2,1-c][1,2,4]triazol-5-yl)benzonitrile] |

| EC50 [nM] | Compound |
| --- | --- |
| 59.5 | Cc1cncc([C@@H]2CCc3nn(C45CC(Cl)(C4)C5)c(=O)n32)n1 [Compound 1-68] |
| 263 | C[C@@H]1C[C@@H](c2cc(F)cc(F)c2)n2c1nn(C13CC(C#N)(C1)C3)c2=O [Compound 1-69, 3-((5S,7R)-5-(3,5-difluorophenyl)-7-methyl-3-oxo-6,7-dihydro-3H-pyrrolo[2,1-c][1,2,4]triazol-2(5H)-yl)bicyclo[1.1.1]pentane-1-carbonitrile] |
| 68.5 | C[C@H]1C[C@@H](c2cc(F)cc(F)c2)n2c1nn(C13CC(C#N)(C1)C3)c2=O [Compound 1-70, 3-((5S,7S)-5-(3,5-difluorophenyl)-7-methyl-3-oxo-6,7-dihydro-3H-pyrrolo[2,1-c][1,2,4]triazol-2(5H)-yl)bicyclo[1.1.1]pentane-1-carbonitrile] |
| 162 | O=c1n(C23CC(Cl)(C2)C3)nc2n1[C@H](c1ccc(F)cn1)CC2 [Compound 1-71, (S)-2-(3-chlorobicyclo[1.1.1]pentan-1-yl)-5-(5-fluoropyridin-2-yl)-2,5,6,7-tetrahydro-3H-pyrrolo[2,1-c][1,2,4]triazol-3-one] |
| 21.2 | Cc1c(F)cc([C@@H]2CCc3nn(C45CC(F)(C4)C5)c(=O)n32)cc1Cl [Compound 1-72, (S)-5-(3-chloro-5-fluoro-4-methylphenyl)-2-(3-fluorobicyclo[1.1.1]pentan-1-yl)-2,5,6,7-tetrahydro-3H-pyrrolo[2,1-c][1,2,4]triazol-3-one] |
| 28.2 | O=c1n(C23CC(F)(C2)C3)nc2n1[C@H](c1cc(F)c(O)c(F)c1)CC2 [Compound 1-73, (S)-5-(3,5-difluoro-4-hydroxyphenyl)-2-(3-fluorobicyclo[1.1.1]pentan-1-yl)-2,5,6,7-tetrahydro-3H-pyrrolo[2,1-c][1,2,4]triazol-3-one] |
| 20.9 | Cc1cc(F)c([C@@H]2CCc3nn(C45CC(F)(C4)C5)c(=O)n32)c(F)c1 [Compound 1-74, (S)-5-(2,6-difluoro-4-methylphenyl)-2-(3-fluorobicyclo[1.1.1]pentan-1-yl)-2,5,6,7-tetrahydro-3H-pyrrolo[2,1-c][1,2,4]triazol-3-one] |
| 17.1 | O=c1n(C23CC(F)(C2)C3)nc2n1[C@H](c1ccc(Cl)c(F)c1)CC2 [Compound 1-75, (S)-5-(4-chloro-3-fluorophenyl)-2-(3-fluorobicyclo[1.1.1]pentan-1-yl)-2,5,6,7-tetrahydro-3H-pyrrolo[2,1-c][1,2,4]triazol-3-one] |
| 27.5 | O=c1n(C23CC(F)(C2)C3)nc2n1[C@H](c1cc(F)c(F)c(F)c1)CC2 [Compound 1-76, (S)-2-(3-fluorobicyclo[1.1.1]pentan-1-yl)-5-(3,4,5-trifluorophenyl)-2,5,6,7-tetrahydro-3H-pyrrolo[2,1-c][1,2,4]triazol-3-one] |
| 16.7 | O=c1n(C23CC(F)(C2)C3)nc2n1[C@H](c1cc(F)c(Cl)c(F)c1)CC2 [Compound 1-77, (S)-5-(4-chloro-3,5-difluorophenyl)-2-(3-fluorobicyclo[1.1.1]pentan-1-yl)-2,5,6,7-tetrahydro-3H-pyrrolo[2,1-c][1,2,4]triazol-3-one] |
| 93.9 | O=c1n(C23CC(F)(C2)C3)nc2n1[C@H](c1ccccc1)COC2 [Compound 1-78, (R)-2-(3-fluorobicyclo[1.1.1]pentan-1-yl)-5-phenyl-2,5,6,8-tetrahydro-3H-[1,2,4]triazolo[3,4-c][1,4]oxazin-3-one] |
| 108 | N#CC12CC(n3nc4n(c3=O)[C@H](c3cc(F)cc(F)c3)COC4)(C1)C2 [Compound 1-79, (R)-3-(5-(3,5-difluorophenyl)-3-oxo-5,6-dihydro-3H-[1,2,4]triazolo[3,4-c][1,4]oxazin-2(8H)-yl)bicyclo[1.1.1]pentane-1-carbonitrile] |
| 73.3 | O=c1n(C23CC(F)(C2)C3)nc2n1[C@H](c1ccccc1)CCC2 [Compound 1-80, (S)-2-(3-fluorobicyclo[1.1.1]pentan-1-yl)-5-phenyl-5,6,7,8-tetrahydro-[1,2,4]triazolo[4,3-a]pyridin-3(2H)-one] |
| 20 | N#CC12CC(n3nc4n(c3=O)[C@H](c3cc(F)cc(F)c3)CC4)(C1)C2(F)F [Compound 3-1, 3-[(5S)-5-(3,5-difluorophenyl)-3-oxo-6,7-dihydro-3H-pyrrolo[2,1-c][1,2,4]triazol-2(5H)-yl]-2,2-difluorobicyclo[1.1.1]pentane-1-carbonitrile] |
| 143 | COC(=O)C12CC(n3nc4n(c3=O)[C@H](c3ccccc3)CC4)(C1)C2(F)F [Compound 3-2, methyl (S)-2,2-difluoro-3-(3-oxo-5-phenyl-6,7-dihydro-3H-pyrrolo[2,1-c][1,2,4]triazol-2(5H)-yl)bicyclo[1.1.1]pentane-1-carboxylate] |

Reference: patent US20240025912A1 (Merck Sharp & Dohme LLC, priority 2022, published 2024)
